Test results reported in US20250092016A1, “COMPOUNDS AND COMPOSITIONS FOR THE TREATMENT OF CORONAVIRAL RELATED DISEASES” (priority 2021, published 2025).
Where two headings read alike, the source gives them in different places.

Target: SARS-CoV-2 main protease (M^pro) (Severe acute respiratory syndrome coronavirus 2, UniProt P0DTD1)
Assay: Rapid-Fire MS Biochemical Assay measuring Mpro activity (5 nM Mpro)
Conditions: Mpro inhibition, 5 μM substrate peptide, 120 min
[1] = Table 1B, read-out: Rapid-Fire Assay IC50

Cc1ncc(C(F)(F)F)cc1N1C[C@H](C#N)N(c2cncc3ccccc23)C1=O (single isomer, unassigned) [Compound 88a]
IC50 [1]: < 20 nM

COc1cnc(C(F)(F)F)cc1N1C[C@H](C#N)N(c2cncc3ccccc23)C1=O (single isomer, unassigned) [Compound 14a]
IC50 [1]: < 20 nM

N#CC1CN(c2cc(C(F)(F)F)ncc2Cl)C(=O)N1c1cncc2ccccc12 (racemic) [Compound 70-1, 1-(5-chloro-2-(trifluoromethyl)pyridin-4-yl)-3-(isoquinolin-4-yl)-2-oxoimidazolidine-4-carbonitrile]
IC50 [1]: 20 to 200 nM

N#Cc1ccc(Cl)cc1N1C[C@H](C#N)N(c2cncc3ccccc23)C1=O (single isomer, unassigned) [Compound 20a]
IC50 [1]: < 20 nM

N#C[C@H]1CN(c2cccc(F)n2)C(=O)N1c1cncc2ccccc12 (single isomer, unassigned) [Compound 61a]
IC50 [1]: 20 to 200 nM

COc1ccc(N2C[C@H](C#N)N(c3cncc4ccccc34)C2=O)cn1 (single isomer, unassigned) [Compound 112a]
IC50 [1]: < 20 nM

Cc1ncccc1N1CC(C#N)N(c2cncc3ccccc23)C1=O (racemic) [Compound 74, 3-(isoquinolin-4-yl)-1-(2-methylpyridin-3-yl)-2-oxoimidazolidine-4-carbonitrile]
IC50 [1]: 200 to 1000 nM

Cc1ccc(F)cc1N1C[C@H](C#N)N(c2cncc3ccccc23)C1=O (single isomer, unassigned) [Compound 21a]
IC50 [1]: < 20 nM

N#CC1CN(C2CCC(F)CC2)C(=O)N1c1cncc2ccccc12 (single isomer, unassigned) [Compound 121a]
IC50 [1]: < 20 nM

COc1cc(Cl)ccc1N1C[C@@H](C#N)N(c2cncc3ccccc23)C1=O (single isomer, unassigned) [Compound 103b]
IC50 [1]: > 1000 nM

C[C@H]1[C@H](C#N)N(c2cncc3ccccc23)C(=O)N1c1cccc(Cl)c1 (single isomer, unassigned) [Compound 43a]
IC50 [1]: < 20 nM

N#C[C@H]1CN(c2ccc(C(F)F)nc2)C(=O)N1c1cncc2ccccc12 (single isomer, unassigned) [Compound 75a]
IC50 [1]: < 20 nM

N#C[C@H]1CN([C@@H]2CCN(C(=O)CO)C2)C(=O)N1c1cncc2ccccc12 (single isomer, unassigned) [Compound 25a]
IC50 [1]: 200 to 1000 nM

N#Cc1ccc(N2C[C@@H](C#N)N(c3cncc4ccccc34)C2=O)cc1F (single isomer, unassigned) [Compound 73b]
IC50 (Rapid-Fire Assay IC50, Table 1B): 200 to 1000 nM

N#C[C@@H]1CN(c2ccc(OC(F)F)cc2F)C(=O)N1c1cncc2ccccc12 (single isomer, unassigned) [Compound 83b]
IC50 [1]: > 1000 nM

CC(C)c1ccc(N2C[C@H](C#N)N(c3cncc4ccccc34)C2=O)cn1 (single isomer, unassigned) [Compound 94a]
IC50 [1]: < 20 nM

C[C@]1(C#N)CN(c2cccc(Cl)c2)C(=O)N1c1cncc2ccccc12 (single isomer, unassigned) [Compound 40a]
IC50 [1]: 200 to 1000 nM

Cc1ncc(N2C[C@@H](C#N)N(c3cncc4ccccc34)C2=O)cn1 (single isomer, unassigned) [Compound 79b]
IC50 [1]: > 1000 nM

COc1ccc(C#N)cc1N1C[C@@H](C#N)N(c2cncc3ccccc23)C1=O (single isomer, unassigned) [Compound 15b]
IC50 [1]: > 1000 nM

COc1cc(C#N)ccc1N1C[C@H](C#N)N(c2cncc3ccccc23)C1=O (single isomer, unassigned) [Compound 19a]
IC50 [1]: < 20 nM

N#C[C@@H]1CN(c2cccc(C(F)F)c2)C(=O)N1c1cncc2ccccc12 (single isomer, unassigned) [Compound 22b]
IC50 [1]: > 1000 nM

N#C[C@@H]1CN(c2ccc(C(F)(F)F)cc2)C(=O)N1c1cncc2ccccc12 (single isomer, unassigned) [Compound 99b]
IC50 [1]: 200 to 1000 nM

COc1ncc(C(F)(F)F)cc1N1C[C@H](C#N)N(c2cncc3ccccc23)C1=O (single isomer, unassigned) [Compound 100a]
IC50 [1]: < 20 nM

COc1cc(Cl)cnc1N1CC(C#N)N(c2cncc3ccccc23)C1=O (racemic) [Compound 58, 1-(5-chloro-3-methoxypyridin-2-yl)-3-(isoquinolin-4-yl)-2-oxoimidazolidine-4-carbonitrile]
IC50 [1]: 200 to 1000 nM

CC(C)n1cc(N2CC(C#N)N(c3cncc4ccccc34)C2=O)cn1 (racemic) [Compound 64, 1-(1-isopropyl-1H-pyrazol-4-yl)-3-(isoquinolin-4-yl)-2-oxoimidazolidine-4-carbonitrile]
IC50 [1]: 20 to 200 nM

CC1(C)CC(N2C[C@H](C#N)N(c3cncc4ccccc34)C2=O)C1 (single isomer, unassigned) [Compound 126a]
IC50 [1]: < 20 nM

Cn1c(C(F)(F)F)ccc(N2C[C@@H](C#N)N(c3cncc4ccccc34)C2=O)c1=O (single isomer, unassigned) [Compound 96b]
IC50 [1]: > 1000 nM

N#C[C@H]1CN(c2cccc(OC(F)(F)F)c2)C(=O)N1c1cncc2ccccc12 (single isomer, unassigned) [Compound 92a]
IC50 [1]: < 20 nM

N#Cc1ccc(C(F)(F)F)cc1N1CC(C#N)N(c2cncc3ccccc23)C1=O (racemic) [Compound 90, 1-(2-cyano-5-(trifluoromethyl)phenyl)-3-(isoquinolin-4-yl)-2-oxoimidazolidine-4-carbonitrile]
IC50 [1]: < 20 nM

N#C[C@@H]1CN(c2ccc(C(F)F)nc2)C(=O)N1c1cncc2ccccc12 (single isomer, unassigned) [Compound 75b]
IC50 [1]: > 1000 nM

N#C[C@@H]1CN(c2cc(Cl)cnn2)C(=O)N1c1cncc2ccccc12 (single isomer, unassigned) [Compound 54b]
IC50 [1]: 200 to 1000 nM

COc1ccc(N2C[C@@H](C#N)N(c3cncc4ccccc34)C2=O)cn1 (single isomer, unassigned) [Compound 112b]
IC50 [1]: > 1000 nM

N#Cc1ccc2cncc(N3C(=O)N(c4cccc(Cl)c4)C[C@H]3C#N)c2c1 (single isomer, unassigned) [Compound 39b]
IC50 [1]: > 1000 nM

CC(C)(C)CN1C[C@@H](C#N)N(c2cncc3ccccc23)C1=O (single isomer, unassigned) [Compound 140b]
IC50 [1]: > 1000 nM

CS(=O)(=O)c1ccc2cncc(N3C(=O)N(c4cc(F)cc(F)c4)C[C@@H]3C#N)c2c1 (single isomer, unassigned) [Compound 86a]
IC50 [1]: 20 to 200 nM

N#C[C@@H]1CN([C@H]2CC[C@H](C(F)(F)F)CC2)C(=O)N1c1cncc2ccccc12 [Compound 128b, (S)-3-(isoquinolin-4-yl)-2-oxo-1-((1 r,4R)-4-(trifluoromethyl)cyclohexyl)imidazolidine-4-carbonitrile]
IC50 [1]: > 1000 nM

Cc1cc(N2C[C@@H](C#N)N(c3cncc4ccccc34)C2=O)cnc1C (single isomer, unassigned) [Compound 98b]
IC50 [1]: > 1000 nM

N#CC1CN(c2cccc(Cl)c2)C(=O)N1c1cncc2ccc(C(=O)O)cc12 (racemic) [Compound 33, 4-(3-(3-chlorophenyl)-5-cyano-2-oxoimidazolidin-1-yl)isoquinoline-6-carboxylic acid]
IC50 [1]: < 20 nM

N#C[C@H]1CN(C2CC3(C2)CC(F)(F)C3)C(=O)N1c1cncc2ccccc12 (single isomer, unassigned) [Compound 127a]
IC50 [1]: < 20 nM

N#C[C@H]1CN(c2cnc(C(F)(F)F)c(F)c2)C(=O)N1c1cncc2ccccc12 (single isomer, unassigned) [Compound 77a]
IC50 [1]: < 20 nM
